Results: patent publication US20250115620A1, “BRIDGED TRICYCLIC CARBAMOYLPYRIDONE COMPOUNDS AND USES THEREOF” (Gilead Sciences, Inc., priority 2022, published 2025)
Read-outs that look alike come from different tables or passages of the source.

What was measured:
HIV-1 (IIIB) = assay: microbe, parasite or virus in culture; format: cell-based; conditions: Human immunodeficiency virus 1, IIIB, MT4, 120 h, HIV-1 (IIIB) in MT-4 cells, 5 days incubation, Cell Titer Glo; read-out: MT4 EC50
pLAI reporter virus = assay: microbe, parasite or virus in culture; format: cell-based, HIV; conditions: Human immunodeficiency virus 1, MT4, 72 h
in vitro = conditions: human, uninfected MT-4 cells

SMILES | EC50 (HIV-1 (IIIB)) [nM] | EC50 (pLAI reporter virus; read-out: RLUC 50% HS EC50) [nM] | EC50 (pLAI reporter virus; read-out: RLUC CCM EC50) [nM] | CC50 at 5 days (in vitro) [nM]
CC1=NO[C@]2(CC[C@H](C)N3C[C@H]2n2cc(C(=O)NCc4ccc(F)cc4F)c(=O)c(O)c2C3=O)C1 [Example 2, (3′S,5R,7′R)—N-(2,4-difluorobenzyl)-12′-hydroxy-3,3′-dimethyl-1′,11′-dioxo-1′,4′,5′,11′-tetrahydro-3′H,4H,7′H-spiro[isoxazole-5,6′-[2,7]methanopyrido[1,2-a][1,4]diazonine]-10′-carboxamide] | 11.2 | 9.2 | 2.6 | ≥ 50000
C[C@H]1CC[C@]2(COC(C)(C)O2)[C@H]2CN1C(=O)c1c(O)c(=O)c(C(=O)NCc3c(F)cc(F)cc3F)cn12 [Example 137, (3′S,4R,7′R)-12′-hydroxy-2,2,3′-trimethyl-1′,11′-dioxo-N-(2,4,6-trifluorobenzyl)-1′,4′,5′,11′-tetrahydro-3′H,7′H-spiro[[1,3]dioxolane-4,6′-[2,7]methanopyrido[1,2-a][1,4]diazonine]-10′-carboxamide] | 1.5 | 13.3 | 0.3 | 42400
C[C@H]1CC[C@]2(CC(S(C)(=O)=O)=NO2)[C@H]2CN1C(=O)c1c(O)c(=O)c(C(=O)NCc3c(F)cc(F)cc3F)cn12 [Example 154, (3′S,5S,7′R)-12′-hydroxy-3′-methyl-3-(methylsulfonyl)-1′,11′-dioxo-N-(2,4,6-trifluorobenzyl)-1′,4′,5′,11′-tetrahydro-3′H,4H,7′H-spiro[isoxazole-5,6′-[2,7]methanopyrido[1,2-a][1,4]diazonine]-10′-carboxamide] | 4.2 | 22.1 | 1.2 | 4140
C[C@H]1CC[C@@]2(ON=C3OCCC[C@@H]32)[C@H]2CN1C(=O)c1c(O)c(=O)c(C(=O)NCc3c(F)cc(F)cc3F)cn12 [Example 50, (3S,3a R,3′S,7′R)-12′-hydroxy-3′-methyl-1′,11′-dioxo-N-(2,4,6-trifluorobenzyl)-1′,3a,4,4′,5,5′,6,11′-octahydro-3′H,7′H-spiro[pyrano[2,3-c]isoxazole-3,6′-[2,7]methanopyrido[1,2-a][1,4]diazonine]-10′-carboxamide] | 0.8 | 10.3 | 0.5 | ≥ 50000
COC1=NO[C@@]2(CCCN3C[C@H]2n2cc(C(=O)NCc4c(F)cc(F)cc4F)c(=O)c(O)c2C3=O)C1 [Example 96, (5S,7′R)-12′-hydroxy-3-methoxy-1′,11′-dioxo-N-(2,4,6-trifluorobenzyl)-1′,4′,5′,11′-tetrahydro-3′H,4H,7′H-spiro[isoxazole-5,6′-[2,7]methanopyrido[1,2-a][1,4]diazonine]-10′-carboxamide] | 1.1 | 1.2 | 0.2 | 31400
C[C@H]1CC[C@@]2(COCO2)[C@H]2CN1C(=O)c1c(O)c(=O)c(C(=O)NCc3c(F)cc(F)cc3F)cn12 [Example 131, (3′S,4S,7′R)-12′-hydroxy-3′-methyl-1′,11′-dioxo-N-(2,4,6-trifluorobenzyl)-1′,4′,5′,11′-tetrahydro-3′H,7′H-spiro[[1,3]dioxolane-4,6′-[2,7]methanopyrido[1,2-a][1,4]diazonine]-10′-carboxamide] | 1.9 | 8.1 | 0.5 | 28900
CC1=NCC2(CC[C@H](C)N3C[C@H]2n2cc(C(=O)NCc4ccc(F)cc4F)c(=O)c(O)c2C3=O)O1 (stereo partly drawn) [Example 56, (3′S,7′R)—N-(2,4-difluorobenzyl)-12′-hydroxy-2,3′-dimethyl-1′,11′-dioxo-1′,4′,5′,11′-tetrahydro-3′H,4H,7′H-spiro[oxazole-5,6′-[2,7]methanopyrido[1,2-a][1,4]diazonine]-10′-carboxamide] | 6.2 | 5 | 3.4 | ≥ 50000
CC1=NO[C@]2(CC[C@H](C)N3C[C@H]2n2cc(C(=O)NCc4ccc(F)cc4F)c(=O)c(O)c2C3=O)C1C (stereo partly drawn) [Example 23, (3′S,5R,7′R)—N-(2,4-difluorobenzyl)-12′-hydroxy-3,3′,4-trimethyl-1′,11′-dioxo-1′,4′,5′,11′-tetrahydro-3′H,4H,7′H-spiro[isoxazole-5,6′-[2,7]methanopyrido[1,2-a][1,4]diazonine]-10′-carboxamide] | 1.2 | 0.9 | 0.5 | ≥ 50000
CC1=NO[C@@]2(CC[C@@H](C)N3C[C@H]2n2cc(C(=O)NCc4c(F)cc(F)cc4F)c(=O)c(O)c2C3=O)C1 [Example 98, (3′R,5S,7′R)-12′-hydroxy-3,3′-dimethyl-1′,11′-dioxo-N-(2,4,6-trifluorobenzyl)-1′,4′,5′,11′-tetrahydro-3′H,4H,7′H-spiro[isoxazole-5,6′-[2,7]methanopyrido[1,2-a][1,4]diazonine]-10′-carboxamide] | 3 | 7.4 | 0.5 | 12700
C[C@H]1CC[C@]2(CC(=O)N(Cc3cnn(C)n3)O2)[C@H]2CN1C(=O)c1c(O)c(=O)c(C(=O)NCc3c(F)cc(F)cc3F)cn12 [Example 104, (3′S,5S,7′R)-12′-hydroxy-3′-methyl-2-((2-methyl-2H-1,2,3-triazol-4-yl)methyl)-1′,3,11′-trioxo-N-(2,4,6-trifluorobenzyl)-1′,4′,5′,11′-tetrahydro-3′H,7′H-spiro[isoxazolidine-5,6′-[2,7]methanopyrido[1,2-a][1,4]diazonine]-10′-carboxamide] | 2.6 | 0.3 | 0.9 | ≥ 50000
C[C@H]1CC[C@]2(CC(=O)N(C)O2)[C@H]2CN1C(=O)c1c(O)c(=O)c(C(=O)NCc3c(F)cc(F)cc3F)cn12 [Example 108, (3′S,5S,7′R)-12′-hydroxy-2,3′-dimethyl-1′,3,11′-trioxo-N-(2,4,6-trifluorobenzyl)-1′,4′,5′,11′-tetrahydro-3′H,7′H-spiro[isoxazolidine-5,6′-[2,7]methanopyrido[1,2-a][1,4]diazonine]-10′-carboxamide] | 3.5 | 7.8 | 0.5 | ≥ 50000
C[C@H]1CC[C@]2(CC(=O)N(C)C2)[C@H]2CN1C(=O)c1c(O)c(=O)c(C(=O)NCc3c(F)cc(F)cc3F)cn12 [Example 61, (3R,3′S,7′S)-12′-hydroxy-1,3′-dimethyl-1′,5,11′-trioxo-N-(2,4,6-trifluorobenzyl)-1′,4′,5′,11′-tetrahydro-3′H,7′H-spiro[pyrrolidine-3,6′-[2,7]methanopyrido[1,2-a][1,4]diazonine]-10′-carboxamide] | 7.6 | 3.4 | 1.9 | ≥ 50000
CC1=NO[C@@]2(CC[C@H](C)N3C[C@H]2n2cc(C(=O)NCc4c(F)cc(F)cc4F)c(=O)c(O)c2C3=O)[C@H]1O [Example 31, (3′S,4S,5R,7′R)-4,12′-dihydroxy-3,3′-dimethyl-1′,11′-dioxo-N-(2,4,6-trifluorobenzyl)-1′,4′,5′,11′-tetrahydro-3′H,4H,7′H-spiro[isoxazole-5,6′-[2,7]methanopyrido[1,2-a][1,4]diazonine]-10′-carboxamide] | 1.4 | 47.2 | 0.3 | 30000
C[C@H]1CC[C@]2(CC(C#CC(C)(C)S(C)(=O)=O)=NO2)[C@H]2CN1C(=O)c1c(O)c(=O)c(C(=O)NCc3c(F)cc(F)cc3F)cn12 [Example 79, (3′S,5S,7′R)-12′-hydroxy-3′-methyl-3-(3-methyl-3-(methylsulfonyl)but-1-yn-1-yl)-1′,11′-dioxo-N-(2,4,6-trifluorobenzyl)-1′,4′,5′,11′-tetrahydro-3′H,4H,7′H-spiro[isoxazole-5,6′-[2,7]methanopyrido[1,2-a][1,4]diazonine]-10′-carboxamide] | 4.8 | 1.4 | 1 | ≥ 50000
CC1=NO[C@@]2(CC[C@H](C)N3C[C@H]2n2cc(C(=O)NCc4c(F)cc(F)cc4F)c(=O)c(O)c2C3=O)[C@H]1F [Example 32, (3′S,4S,5R,7′R)-4-fluoro-12′-hydroxy-3,3′-dimethyl-1′,11′-dioxo-N-(2,4,6-trifluorobenzyl)-1′,4′,5′,11′-tetrahydro-3′H,4H,7′H-spiro[isoxazole-5,6′-[2,7]methanopyrido[1,2-a][1,4]diazonine]-10′-carboxamide] | 1.5 | 261 | 0.4 | 21200
C[C@H]1CC[C@@]2(OC[C@@H](Cc3ccccc3)O2)[C@H]2CN1C(=O)c1c(O)c(=O)c(C(=O)NCc3c(F)cc(F)cc3F)cn12 (single isomer, unassigned) [169 (peak 1)] | 4.9 | 10 | 1.4 | 39000
[2H]C([2H])([2H])OC1=NO[C@@]2(CC[C@H](C)N3C[C@H]2n2cc(C(=O)NCc4ccc(F)cc4F)c(=O)c(O)c2C3=O)C1 [Example 153, (3′S,5S,7′R)—N-(2,4-difluorobenzyl)-12′-hydroxy-3-(methoxy-d3)-3′-methyl-1′,11′-dioxo-1′,4′,5′,11′-tetrahydro-3′H,4H,7′H-spiro[isoxazole-5,6′-[2,7]methanopyrido[1,2-a][1,4]diazonine]-10′-carboxamide] | 0.9 | 16.1 | 0.2 | 17600
CC1=NO[C@]2(C1)C[C@H](F)[C@H](C)N1C[C@H]2n2cc(C(=O)NCc3ccc(F)cc3F)c(=O)c(O)c2C1=O [Example 5, (3′S,4′S,5R,7′R)—N-(2,4-difluorobenzyl)-4′-fluoro-12′-hydroxy-3,3′-dimethyl-1′,11′-dioxo-1′,4′,5′,11′-tetrahydro-3′H,4H,7′H-spiro[isoxazole-5,6′-[2,7]methanopyrido[1,2-a][1,4]diazonine]-10′-carboxamide] | 1.6 | 27.4 | 0.4 | 25800
